Reference: paper PMC13267291, “In vivo functional profiling and structural characterization of the human GLP1R A316T variant” (Science Advances, 2026)

Experiments:
[1] = tested on: SNAP/FLAG-hGLP1R^A316T versus ^WT; assay: High content microscopy GLP-1R internalization assay; type: cell-based, rat; conditions: INS-1 832/3 sublines; 5-60 min; AUC; n = 3; Fig. 7G
Procedure: INS-1 832/3 Glp1r^−/− SNAP/FLAG-hGLP1R^WT or ^A316T cells were seeded onto poly-D-lysine–coated black 96-well plates for 24 hours before the assay. Cells were labeled for 30 min with 1 μM SNAP surface cleavable BG-SS-649 probe at 37°C and washed once with HBSS before treatment with GLP-1RA or vehicle for 60, 30, 15, or 5 min at 37°C in complete medium. Cells were then washed with cold HBSS, and subsequent steps were carried out at 4°C. The cell-impermeable reducing agent Mesna {100 mM in alkaline tris-NaCl-EDTA (TNE) buffer [20 mM tris-HCl, 1 mM EDTA, and 150 mM NaCl (pH 8.6)]} or alkaline TNE buffer without Mesna was applied for 5 min to cleave BG-SS-649 probe left at the cell surface and then washed with HBSS. […] Internalized GLP-1R, indicated by cell-associated fluorescence, was analyzed after flat-field correction of fluorescent images using the BaSiC plugin ([96]), segmentation of cell-containing regions from phase contrast images using Phantast ([97]), and fluorescence intensity quantification. The percentage of internalized receptor was calculated as follows F+Me(tx)/F−Me(tx)−F+Me(t0)/F−Me(t0)/1−F+Me(t0)/F−Me(t0) where F+Me and F−Me are mean fluorescence intensities ± Mesna at times tx (5, 15, 30, or 60 min) or t0 (0 min). […]

[2] = tested on: SNAP/FLAG-hGLP1R^A316T versus ^WT; assay: GLP-1R conformational ECD opening TR-FRET assay; type: cell-based, human; conditions: serial doses, 30 min; n = 5; Fig. 8E
Procedure: Nb37 bystander NanoBiT assays
INS-1 832/3 Glp1r-/- cells were seeded in 6-well plates and co-transfected with the following plasmids:
200 ng pSNAP/FLAG-hGLP1RWT or A316T, 500 ng Gαs (human, short isoform), 500 ng Gβ1 (human), 500 ng Gγ2 (human), 100 ng RIC8B (human, isoform 2), and either 100 ng LgBiT-CAAX (KRAS CAAX motif N-terminally fused with LgBiT) or 500 ng Endofin-LgBiT (Endofin FYVE domain C-terminally fused with LgBiT), plus 100 ng (plasma membrane assay) or 500 ng (endosomal assay) SmBiT-Nb37 [Nb37 cDNA synthesised by GenScript C- terminally fused to SmBiT with a 15 amino acid flexible linker (123) ] and adjusted for total DNA with pcDNA3.1 for the LgBiT-CAAX transfection. 24 hours after transfection, cells were exposed to NanoGlo Live Cell Reagent (Promega) with furimazine (1:20 dilution) and bioluminescence read in a Flexstation 3 plate reader for 8 min before and 30 min after stimulation by […]
AUCs were calculated for each agonist concentration and fitted to log(agonist) versus response four-parameter curves using GraphPad Prism 10.1.2, with logEC50 (potency) and Emax (efficacy) calculated for each replicate dose response curve. Baseline endosomal over plasma membrane bioluminescence ratios were also calculated.
GLP- 1R conformational ECD opening time resolved-fluorescence resonance energy transfer (TR- […]
signal serially monitored for 30 min. […]

Substance: GLP-1(7-36)NH2
- A316T GLP-1R internalization versus WT [1]: significantly increased
- TR-FRET (ECD opening) in response to agonist, A316T versus WT [2]: significantly increased
